# In patent publication US20210254272A1, “TEXTILES HAVING ANTIMICROBIAL PROPERTIES” (Livinguard AG, priority 2015, published 2021):
# Experiment: Leaching test: 100 g fabric soaked in 10 liters stagnant distilled water, 3 days (72 hours)
# Assay type: physicochemical
# Conditions: for Leaching of active ingredients / Leaching Test-Leaching of active ingredients: pad process; for Leaching of active ingredients: cured 180° C. 2 min; for Leaching Test-Leaching of active ingredients: 2 min
# Protocol: (§1) The test procedure for leaching was as follows: 100 g (grams) of fabric as well as control fabrics were soaked in 10 liters of stagnant distilled water in a closed wide mouth jar. After 3 days (72 hours), the water samples were tested for leached substances as per standard analytical methods.
# as §1, with “methods. A weight of 100 g fabric was chosen because in the preferred embodiment of the water filter as described further below, each filter comprises a strip of fabric with 210 g/m^2, 3 meters long and 0.16 meters wide, which corresponds to 100 g of fabric.” for “methods.”
smiles,measurement,setting,value
"CCCCCCCCCCCCCCCCCC[N+](C)(C)CCC[Si](OC)(OC)OC [Organosilane, dimethyloctadecyl[3-(trimethoxysilyl)propyl] ammonium chloride]",Leaching of active ingredients (in ppm),"exhaust 80° C., 60 min, dosage 1% o.w.f (test up to 5% o.w.f)",3 ppm
same,Leaching of active ingredients (in ppm),"exhaust 80° C., 60 min, dosage 2% o.w.f",22 ppm
same,Leaching of active ingredients (in ppm),"exhaust 80° C., 60 min, dosage 3% o.w.f",38 ppm
same,Leaching of active ingredients (in ppm),"exhaust 80° C., 60 min, dosage 4% o.w.f",52 ppm
same,Leaching of active ingredients (in ppm),"exhaust 80° C., 60 min, dosage 5% o.w.f",72 ppm
same,Leaching of active ingredients (in ppm),"exhaust 80 ° C., solution dosage 1% o.w.f, process time 10 min",40 ppm
same,Leaching of active ingredients (in ppm),"exhaust 80 ° C., solution dosage 1% o.w.f, process time 20 min",29 ppm
same,Leaching of active ingredients (in ppm),"exhaust 80 ° C., solution dosage 1% o.w.f, process time 30 min",25 ppm
same,Leaching of active ingredients (in ppm),"exhaust 80 ° C., solution dosage 1% o.w.f, process time 40 min",18 ppm
same,Leaching of active ingredients (in ppm),"exhaust 80 ° C., solution dosage 1% o.w.f, process time 50 min",15 ppm
same,Leaching of active ingredients (in ppm),"exhaust 80 ° C., solution dosage 1% o.w.f, process time 55 min",6 ppm
same,Leaching of active ingredients (in ppm),"exhaust 80 ° C., solution dosage 1% o.w.f, process time 60 min",2 ppm
same,Leaching of active ingredients (in ppm),"exhaust 80 ° C., solution dosage 1% o.w.f, process time 70 min",3 ppm
same,Leaching of active ingredients (in ppm),"exhaust 80 ° C., solution dosage 1% o.w.f, process time 80 min",4 ppm
same,Leaching of active ingredients (in ppm),"exhaust 80 ° C., solution dosage 1% o.w.f, process time 90 min",7 ppm
same,limit on the quantity of the agent that can be adhered to the textile in a non-leaching or substantially non-leaching manner,from Experimental examples I.1 and I.4,about 0.7 % o.w.f.
same,Leaching of active ingredients,mixture 1 gm/lit each,11 ppm
same,Leaching of active ingredients,"mixture 1 gm/lit each, after Washing",0.2 ppm
same,Leaching of active ingredients,mixture 5 gm/lit each,22 ppm
same,Leaching of active ingredients,"mixture 5 gm/lit each, after Washing",0.5 ppm
same,Leaching of active ingredients,mixture 10 gm/lit each,32 ppm
same,Leaching of active ingredients,"mixture 10 gm/lit each, after Washing",0.7 ppm
same,Leaching Test-Leaching of active ingredients,"single agent 5 gm/lit, curing 120° C.",8 ppm
same,Leaching Test-Leaching of active ingredients,"single agent 5 gm/lit, curing 140° C.",6 ppm
same,Leaching Test-Leaching of active ingredients,"single agent 5 gm/lit, curing 150° C.",5 ppm
same,Leaching Test-Leaching of active ingredients,"single agent 5 gm/lit, curing 160° C.",3 ppm
same,Leaching Test-Leaching of active ingredients,"single agent 5 gm/lit, curing 180° C.",1 ppm
same,Leaching Test-Leaching of active ingredients,"single agent 10 gm/lit, curing 120° C.",17 ppm
same,Leaching Test-Leaching of active ingredients,"single agent 10 gm/lit, curing 140° C.",13 ppm
same,Leaching Test-Leaching of active ingredients,"single agent 10 gm/lit, curing 150° C.",10 ppm
same,Leaching Test-Leaching of active ingredients,"single agent 10 gm/lit, curing 160° C.",9 ppm
same,Leaching Test-Leaching of active ingredients,"single agent 10 gm/lit, curing 180° C.",1 ppm
same,Leaching of active ingredient (in ppm),"solution dosage 0.10% o.w.f, exhaust temperature 40° C., process time 60 min",0 ppm
same,Leaching of active ingredient (in ppm),"solution dosage 0.10% o.w.f, exhaust temperature 60° C., process time 60 min",0 ppm
same,Leaching of active ingredient (in ppm),"solution dosage 0.10% o.w.f, exhaust temperature 65° C., process time 60 min",0 ppm
same,Leaching of active ingredient (in ppm),"solution dosage 0.10% o.w.f, exhaust temperature 70° C., process time 60 min",0 ppm
same,Leaching of active ingredient (in ppm),"solution dosage 0.10% o.w.f, exhaust temperature 75° C., process time 60 min",0 ppm
same,Leaching of active ingredient (in ppm),"solution dosage 0.10% o.w.f, exhaust temperature 80° C., process time 60 min",0 ppm
same,Leaching of active ingredient (in ppm),"solution dosage 0.10% o.w.f, exhaust temperature 85° C., process time 60 min",1 ppm
same,Leaching of active ingredient (in ppm),"solution dosage 0.10% o.w.f, exhaust temperature 90° C., process time 60 min",2 ppm
same,Leaching of active ingredient (in ppm),"solution dosage 0.10% o.w.f, exhaust temperature 95° C., process time 60 min",3 ppm
same,Leaching of active ingredient (in ppm),"solution dosage 0.20% o.w.f, exhaust temperature 40° C., process time 60 min",0 ppm
same,Leaching of active ingredient (in ppm),"solution dosage 0.20% o.w.f, exhaust temperature 60° C., process time 60 min",0 ppm
same,Leaching of active ingredient (in ppm),"solution dosage 0.20% o.w.f, exhaust temperature 65° C., process time 60 min",0 ppm
same,Leaching of active ingredient (in ppm),"solution dosage 0.20% o.w.f, exhaust temperature 70° C., process time 60 min",0 ppm
same,Leaching of active ingredient (in ppm),"solution dosage 0.20% o.w.f, exhaust temperature 75° C., process time 60 min",0 ppm
same,Leaching of active ingredient (in ppm),"solution dosage 0.20% o.w.f, exhaust temperature 80° C., process time 60 min",0 ppm
same,Leaching of active ingredient (in ppm),"solution dosage 0.20% o.w.f, exhaust temperature 85° C., process time 60 min",3 ppm
same,Leaching of active ingredient (in ppm),"solution dosage 0.20% o.w.f, exhaust temperature 90° C., process time 60 min",3 ppm
same,Leaching of active ingredient (in ppm),"solution dosage 0.20% o.w.f, exhaust temperature 95° C., process time 60 min",4 ppm
same,Leaching of active ingredient (in ppm),"solution dosage 0.50% o.w.f, exhaust temperature 40° C., process time 60 min",0 ppm
same,Leaching of active ingredient (in ppm),"solution dosage 0.50% o.w.f, exhaust temperature 60° C., process time 60 min",2 ppm
same,Leaching of active ingredient (in ppm),"solution dosage 0.50% o.w.f, exhaust temperature 65° C., process time 60 min",1 ppm
same,Leaching of active ingredient (in ppm),"solution dosage 0.50% o.w.f, exhaust temperature 70° C., process time 60 min",1 ppm
same,Leaching of active ingredient (in ppm),"solution dosage 0.50% o.w.f, exhaust temperature 75° C., process time 60 min",1 ppm
same,Leaching of active ingredient (in ppm),"solution dosage 0.50% o.w.f, exhaust temperature 80° C., process time 60 min",1 ppm
same,Leaching of active ingredient (in ppm),"solution dosage 0.50% o.w.f, exhaust temperature 85° C., process time 60 min",4 ppm
same,Leaching of active ingredient (in ppm),"solution dosage 0.50% o.w.f, exhaust temperature 90° C., process time 60 min",5 ppm
same,Leaching of active ingredient (in ppm),"solution dosage 0.50% o.w.f, exhaust temperature 95° C., process time 60 min",6 ppm
same,Leaching of active ingredient (in ppm),"solution dosage 0.80% o.w.f, exhaust temperature 40° C., process time 60 min",0 ppm
same,Leaching of active ingredient (in ppm),"solution dosage 0.80% o.w.f, exhaust temperature 60° C., process time 60 min",3 ppm
same,Leaching of active ingredient (in ppm),"solution dosage 0.80% o.w.f, exhaust temperature 65° C., process time 60 min",3 ppm
same,Leaching of active ingredient (in ppm),"solution dosage 0.80% o.w.f, exhaust temperature 70° C., process time 60 min",2 ppm
same,Leaching of active ingredient (in ppm),"solution dosage 0.80% o.w.f, exhaust temperature 75° C., process time 60 min",1 ppm
same,Leaching of active ingredient (in ppm),"solution dosage 0.80% o.w.f, exhaust temperature 80° C., process time 60 min",1 ppm
same,Leaching of active ingredient (in ppm),"solution dosage 0.80% o.w.f, exhaust temperature 85° C., process time 60 min",5 ppm
same,Leaching of active ingredient (in ppm),"solution dosage 0.80% o.w.f, exhaust temperature 90° C., process time 60 min",6 ppm
same,Leaching of active ingredient (in ppm),"solution dosage 0.80% o.w.f, exhaust temperature 95° C., process time 60 min",8 ppm
same,Leaching of active ingredient (in ppm),"solution dosage 1.00% o.w.f, exhaust temperature 40° C., process time 60 min",0 ppm
same,Leaching of active ingredient (in ppm),"solution dosage 1.00% o.w.f, exhaust temperature 60° C., process time 60 min",6 ppm
same,Leaching of active ingredient (in ppm),"solution dosage 1.00% o.w.f, exhaust temperature 65° C., process time 60 min",6 ppm
same,Leaching of active ingredient (in ppm),"solution dosage 1.00% o.w.f, exhaust temperature 70° C., process time 60 min",3 ppm
same,Leaching of active ingredient (in ppm),"solution dosage 1.00% o.w.f, exhaust temperature 75° C., process time 60 min",2 ppm
same,Leaching of active ingredient (in ppm),"solution dosage 1.00% o.w.f, exhaust temperature 80° C., process time 60 min",1 ppm
same,Leaching of active ingredient (in ppm),"solution dosage 1.00% o.w.f, exhaust temperature 85° C., process time 60 min",7 ppm
same,Leaching of active ingredient (in ppm),"solution dosage 1.00% o.w.f, exhaust temperature 90° C., process time 60 min",9 ppm
same,Leaching of active ingredient (in ppm),"solution dosage 1.00% o.w.f, exhaust temperature 95° C., process time 60 min",10 ppm
